According to PMC12647017, “Discovery and optimization of a synthetic small protein domain targeting antibodies” (Frontiers in Bioengineering and Biotechnology, 2025):
Values belong to the molecule of their own block, whether it stands above or below them.

Legend:
human IgG = assay: Microscale Thermophoresis (MST) with IgG-FITC; assay type: binding
Procedure: For MST assays of E6, IgG was conjugated with fluoresceine isothiocyanate (FITC) using standard protocols. The conjugated IgG-FITC was used at a fixed concentration of 50nM and 16 serial dilutions of E6 protein (from 23.5 µM to 0.7 nM) were made in 50 mM MOPS 0.05% (v/v) Tween-20 pH 7.
For MST assays of E6_M2_T2, the target was hIgG-FITC (F9636, Sigma) at a constant concentration of 25 nM. For the E6_M2_T2 ligand, 16 samples were prepared in variable concentrations starting from 695 nM and using a serial dilution of 1:2 up to a minimum concentration of […] using PBS1x-0.05% (v/v) Tween-20 pH7.4.
Samples were transferred to a standard capillary (Monolith NT.115 Capillary, Nanotemper) with the following settings: medium MST-power, excitation power at 20%, with excitation in Nano-Blue, with thermostat at 25 °C. The signal of the samples was read in triplicates using a Monolith NT.115 (Nanotemper) and the signal was processed in the manufacturer software with FitModel: Kd and Hill. The binding parameters (KD and EC50) and were estimated automatically in the MST software.

[1] = Solubility / precipitation observed during production, dialysis and purification; assay type: physicochemical
Procedure: Therefore, after expression the soluble fractions were further centrifuged at 42,000 g for 20 min at 4 °C. As the samples were diluted (∼5 mg/mL in 25 mL lysis buffer), the soluble fractions were lyophilized and resuspended in 4 mL of water. The samples were dialyzed (Membranes Spectra Pre-Treated 1 kDa, Carl Roth) to Binding buffer without imidazole (20 mM Sodium Phosphate, 500 mM Sodium Chloride pH 7.4) for 24 h at 16 °C. The samples were quantified by […] (typically ∼6 mg/mL), this solution was diluted 1:2 in Binding buffer (20 mM Sodium Phosphate, 500 mM Sodium Chloride, 20 mM imidazole pH 7.4) and purified in a gravitational flow with 6 mL of resin (IMAC Sepharose 6 Fast Flow (Ni^2+), Cytiva) packed in a PD-10 column. The column was prepared using the indications of the manufacturer. The binding of the protein to the column was maximized by an incubation for 1 h at room temperature in agitation at 40rpm. The resin was washed 4 x column volumes (CV) with binding buffer. The elution as achieved by incubation for 15min with elution buffers. We used a gradient with 3 x CV elution buffer 1 (binding buffer with 100 mM imidazole) and 3 x CV elution buffer 2 (binding buffer with 200 mM imidazole).
The most enriched elutions in WW domains (60%–70% purity) were combined and dialysed against PBS1x (10 mM Na2HPO4, 1.8 mM KH2PO4, 2.7 mM KCl, 137 mM NaCl pH 7.4) with routine changes of buffer up to 48 h at 16 °C. Following the samples were concentrated with a Amicon-Ultra15 3 kDa MWCO (Millipore) with centrifugation conditions 4,900 g, 30 min, 4 °C. The final samples were quantified by BCA assay.
Size Exclusion Chromatography (SEC). The samples were further purified by SEC to achieve 90% purity in a AKTA system (Cytiva). The column Superdex 75 Increase 10/300 GL (29148721, Cytiva) was washed with water and equilibrated 2CV in PBS1x, as described by the manufacturer. As calibrants we prepare a mixture: 2 mg/mL of Bovine Serum Albumin (66 kDa, BP9702-100, FisherScientific), Ovalbumin (42 kDa, A5503-1G, Sigma), Chicken Lysozyme ([…], 62,971–10G-F, Fluka) and hPin1_WW chemically synthesized (5 kDa, produced in ([Dias et al., 2015])) in PBS 1x, this sample was filtered with 0.2 µm PES (514–0073, VWR) and analysed. The operation conditions: flow 0.5 mL/min, 0.05 CV in PBS1x and injection of 250 µL and run for 2 CV with PBS 1x at 16 °C. The same method was used for the WW domain samples. After purifications samples were quantified for total protein by BCA assay, as described previously and used for characterization.

human polyclonal IgG = assay: Screening ELISA of phage display clones (crude extracts) against human polyclonal IgG; assay type: binding; parameters: key: High: high binders (Abs>0.4); Moderate: moderate signal; conditions: crude extract of clones from 6th panning round, 1 µg/well human polyclonal IgG, blocked 3% (w/v) BSA in TBS, 50 µL extract 1 h at 37 °C, Anti-HA tag-HRP, ABTS, Abs405nm
Procedure: The biopanning of the previously developed WWp5_4 library ([Dias et al., 2025]) (Figures 1A,B) against human polyclonal IgG was performed for six rounds, after which an enrichment of ligands was observed (Supplementary Table S3). To assess the binding of each clone to the target, 192 clones were selected and expressed at small scale in 96-deep well blocks, following conditions previously optimised. After cell lysis, the supernatant containing the soluble fraction was used for ELISA assays. The results in Figure 1C illustrate the difference in the absorbance profile of the screened ligands. […] From these 26, only 21 presented high quality for reliable sequencing results. The sequence alignment and diversity of the different binders is represented in Table 1 and Figure 2A.
Small Scale Protein Expression and screening ELISA: From the output of the 6th round of panning, 94 isolated colonies were peaked into two sterile 96-well deep well 2mL round-bottom plates and grown with 200 µL of LB with ampicillin, 125 rpm, 37 °C, overnight (master plates). The following day, to one of the master plates was added glycerol to achieve a final concentration of 15% and was stored at -80 °C. Regarding the other master plate, 12 µL of this culture was added to another sterile 96-well deep well 2 mL round-bottom plate with 1.2 mL of LB with ampicillin and was grown at 37 °C, 125 rpm until OD600nm achieved 0.5-0.6. After this, protein expression was induced with 1 mM IPTG and continued incubation with the previous conditions. The following day, the cultures were sonicated for 30 minutes in ice-water bath and centrifuged for 10 minutes at 2500 x g. The supernatant was collected and transferred to a new microplate to be used in the screening for the ELISA (crude extract). For the ELISA, three microplates were tested: A) Sample binding plate; B) Negative control plate; C) Expression plate. On the sample binding plate, 1 µg/well of human polyclonal IgG was immobilized on the plate at 4 °C, overnight. On the following day, the target was removed, and the wells were washed once with TBS, then the plate was blocked with 300 µL 3% (w/v) BSA in TBS for 1 hour at 37 °C. After this, the wells were washed once with TBS, and were then incubated with 50 µL of crude extract (containing WW domain) for 1 hour at 37 °C. The plate was then washed 5 times with TBS-T, and then incubated with 100 µL of the Anti-HA tag-HRP conjugated antibody (diluted 1:1000) for 1 hour at 37 °C. The plate was then washed once with TBS-T and 4 times with TBS, and then incubated with the substrate ABTS for 1 hour at the dark at 37 °C. The results were then analysed in a microplate reader (TECAN) and the Abs405nm was then measured.
For the Negative control plate the protocol was the same as for the Binding microplate, except for the target immobilization. Instead of having IgG, only coating buffer was added. This plate allows to detect clones that unspecific bind to BSA present in the Blocking Buffer. For the Expression plate the protocol started at the step of incubation with the crude extract, and from there the steps were the same as the Binding microplate. This plate allows to detect clone’s basal expression level.

[2] = biological target: human polyclonal IgG (human); assay: ELISA; hIgG immobilised (1 ug/well) in 0.1 M sodium bicarbonate pH 8.6 on Maxisorp plates; blocked with 5% soya milk in PBS; 100 uL soluble fraction (~0.065 mg/mL total protein), 2 h at room temperature; detection with anti-His-HRP and ABTS, Abs 405 nm

EC50 (human IgG; E6_M2_T2, hIgG-FITC 25 nM, ligand from 695 nM 1:2 dilutions, PBS1x-0.05% (v/v) Tween-20 pH 7.4, 25 °C, n = 3): 157 nM | Kd (human IgG; E6_M2_T2, hIgG-FITC 25 nM, ligand from 695 nM 1:2 dilutions, PBS1x-0.05% (v/v) Tween-20 pH 7.4, 25 °C, n = 3, read-out: dissociation constant, KD): 62 ± 14 nM
Molecule: C S GK LPPGW E E R KTRRFKLG R TYYYNHHILSKTS Q W EH PR G SSS GK LPPGW E E R KTRRFKLG R TYYYNHHILSKTS Q W EH PR G SS [Clone E6_M2_T2]
KD relative to KD of E6 native sequence (human IgG; human IgG): half of the dissociation constant estimated for the E6 native sequence | aggregation compared with the monomeric version [1]: aggregates less than the monomeric version | solubility compared with native counterpart E6 ([1]; IMAC purification without chaotropic agents): higher solubility than the native counterpart | precipitation during size exclusion chromatography ([1]; Superdex 75 Increase 10/300 GL, PBS1x, 16 °C): did not observe any precipitation | stability compared with E6_M2 ([1]; after dialysis and during size exclusion chromatography): more stable | precipitation / solubility after dialysis ([1]; dialysis against PBS1x pH 7.4, up to 48 h at 16 °C): always soluble

Molecule: SMGLLPGWDEYKT WVVDV GKTYYYNH FKVS KTSTWTDPRMSS [Clone H8, WW domain clone against human IgG, loops WVVDV / FKVS]
ELISA signal (human polyclonal IgG): Moderate

Molecule: SMGLPPGWDEYKT AFSRA GKTYYYNH YLEE KTSTWTDPRMSS [Clone G5, WW domain clone against human IgG, loops AFSRA / YLEE]
ELISA signal (human polyclonal IgG): High (high binders (Abs>0.4))

Molecule: SMGLPPGWDEYKT ALSRW GKTYYYNH DWNP KTSTWTDPRMSS [Clone H7, WW domain clone against human IgG, loops ALSRW / DWNP]
ELISA signal (human polyclonal IgG): Moderate

Molecule: SMGLPPGWDEYKT FEIVM GKTYYYNH MHTD KTSTWTDPRMSS [Clone D10, WW domain clone against human IgG, loops FEIVM / MHTD]
ELISA signal (human polyclonal IgG): Moderate

Molecule: SMGLPPGWDEYKT SLSRP GKTYYYNH EEPS KTSTWTDPRMSS [Clone G3, WW domain clone against human IgG, loops SLSRP / EEPS]
ELISA signal (human polyclonal IgG): High (high binders (Abs>0.4))

Molecule: SMGLPPGWDEYKT SMALL GKTYYYNH YTPG KTSTWTDPRMSS [Clone C8, WW domain clone against human IgG, loops SMALL / YTPG]
ELISA signal (human polyclonal IgG): Moderate

Molecule: SMGLPPGWDEYKT TLAGL GKTYYYNH YTPG KTSTWTDPRMSS [Clone G9, WW domain clone against human IgG, loops TLAGL / YTPG]
ELISA signal (human polyclonal IgG): Moderate

Molecule: SMGLPPGWDEYKT TMAWL GKTYYYNH YTPG KTSTWTDPRMSS [Clone A5, WW domain clone against human IgG, loops TMAWL / YTPG]
ELISA signal (human polyclonal IgG): High (high binders (Abs>0.4))

Molecule: SMGLPPGWDEYKT VLYSG GKTYYYNH IMSL KTSTWTDPRMSS [Clone H6, WW domain clone against human IgG, loops VLYSG / IMSL]
ELISA signal (human polyclonal IgG): High (high binders (Abs>0.4))

Molecule: SMGLPPGWDEYKT YRVMV GKTYYYNH LYRL KTSTWTDPRMSS [Clone H3, WW domain clone against human IgG, loops YRVMV / LYRL]
ELISA signal (human polyclonal IgG): High (high binders (Abs>0.4))

ELISA binding signal relative to the negative control (E. coli Rosetta extract) [2]: 2 fold | ELISA binding signal relative to the scaffold framework WWp5 4 [2]: 2 fold
Molecule: CSGKLPPGWEERKTRRFKLGRTYYYNHHILSKTSQWEHPRGSS (designed binder) [E6_M2]

ELISA binding signal relative to the negative control (E. coli Rosetta extract) [2]: 1.5 fold
Molecule: SMGLPPGWDEYKTRRFKLGKTYYYNHHILSKTSTWTDPRMSS (designed binder) [E6 in pET21a with C-terminal histidine tag]
